The values that follow are results of earlier work, collected in patent US20070293534A1, “Process for the preparation of mivacurium chloride” (FARMABIOS S.P.A., priority 2006, published 2007).

Molecules are shown by their SMILES.

The conditions of this series: for neuromuscolar blocking potencies compared with each other: trans-trans versus cis-trans diastereoisomer.

`COc1cc2c(cc1OC)[C@@H](Cc1cc(OC)c(OC)c(OC)c1)[N@+](C)(CCCOC(=O)CC/C=C/CCC(=O)OCCC[N@+]1(C)CCc3cc(OC)c(OC)cc3[C@H]1Cc1cc(OC)c(OC)c(OC)c1)CC2.[Cl-].[Cl-]` [trans-trans]: the “neuromuscolar blocking potencies compared with each other” value is given as “not significantly different from each other”.

On to `COc1cc2c(cc1OC)[C@@H](Cc1cc(OC)c(OC)c(OC)c1)[N@@+](C)(CCCOC(=O)CC/C=C/CCC(=O)OCCC[N@+]1(C)CCc3cc(OC)c(OC)cc3[C@H]1Cc1cc(OC)c(OC)c(OC)c1)CC2.[Cl-].[Cl-]` [cis-trans], for which the “neuromuscolar blocking potencies compared with each other” value is “not significantly different from each other”.

For `COc1cc2c(cc1OC)[C@@H](Cc1cc(OC)c(OC)c(OC)c1)[N@@+](C)(CCCOC(=O)CC/C=C/CCC(=O)OCCC[N@@+]1(C)CCc3cc(OC)c(OC)cc3[C@H]1Cc1cc(OC)c(OC)c(OC)c1)CC2.[Cl-].[Cl-]` (single isomer, unassigned) [cis-cis diastereoisomer], the “neuromuscolar blocking potency relative to the other two diastereoisomers” value (fraction of the potency of the trans-trans and cis-trans diastereoisomers, estimated) is listed as “approximately one tenth”.
